Target: FXR (Homo sapiens (Human), UniProt Q96RI1)
Assay: transient human FXR/Gal4-luciferase reporter assay
Format: cell-based
Settings: not given
How it was run: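 Compound exposure ran overnight at 37 °C and activity was measured as luminescence with Steady-Glo reagent. The cells were a HEK293 line stably expressing firefly luciferase under five Gal4 response elements. They were transiently transfected, one night beforehand, with a plasmid encoding Gal4 DNA-binding domain fused to the human FXR ligand-binding domain.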

FXR, sequence (Q96RI1 262-486): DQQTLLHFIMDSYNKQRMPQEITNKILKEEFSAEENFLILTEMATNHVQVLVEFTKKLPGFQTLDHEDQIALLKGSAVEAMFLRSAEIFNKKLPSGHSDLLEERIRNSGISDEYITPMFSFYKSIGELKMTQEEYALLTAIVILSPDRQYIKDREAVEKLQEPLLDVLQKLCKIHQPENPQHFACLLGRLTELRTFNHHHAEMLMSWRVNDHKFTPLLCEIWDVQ

Row | Structure (SMILES) | EC50 [nM]
1 | O=C(N(CC12CCC(c3ccc(C(F)(F)F)cn3)(CC1)CC2)c1cccc(-c2ccc(OC(F)F)cc2)c1)C12CC(F)(C1)C2 [Example 493, N-(4′-(difluoromethoxy)-[1,1′-biphenyl]-3-yl)-3-fluoro-N-((4-(5-(trifluoromethyl)pyridin-2-yl)bicyclo[2.2.2]octan-1-yl)methyl)bicyclo[1.1.1]pentane-1-carboxamide] | 552
2 | CC(C)(C)c1nc(C23CCC(CN(C(=O)C45CC(F)(C4)C5)c4cncc(-c5cnc6nc(C7CC7)sc6c5)c4)(CC2)CC3)no1 [Example 480, N-((4-(5-(tert-butyl)-1,2,4-oxadiazol-3-yl)bicyclo[2.2.2]octan-1-yl)methyl)-N-(5-(2-cyclopropylthiazolo[4,5-b]pyridin-6-yl)pyridin-3-yl)-3-fluorobicyclo[1.1.1]pentane-1-carboxamide] | 988
3 | CCc1cnc(-c2cccc(N(CC34CCC(c5ccc(C(F)(F)F)cn5)(CC3)CC4)C(=O)C34CC(F)(C3)C4)c2)nc1 [Example 496, N-(3-(5-ethylpyrimidin-2-yl)phenyl)-3-fluoro-N-((4-(5-(trifluoromethyl)pyridin-2-yl)bicyclo[2.2.2]octan-1-yl)methyl)bicyclo[1.1.1]pentane-1-carboxamide] | 539
4 | CCOc1ncc(-c2cccc(N(CC34CCC(c5nc(C(C)(C)C)no5)(CC3)CC4)C(=O)C3CC(O)(C(F)(F)F)C3)c2)cn1 [Example 507, (1S,3S)—N-((4-(3-(tert-butyl)-1,2,4-oxadiazol-5-yl)bicyclo[2.2.2]octan-1-yl)methyl)-N-(3-(2-ethoxypyrimidin-5-yl)phenyl)-3-hydroxy-3-(trifluoromethyl)cyclobutane-1-carboxamide] | 188
5 | CC(F)(F)c1nc(C23CCC(CN(C(=O)C45CC(F)(C4)C5)c4cccc(-c5cnc6nc(C7CC7)sc6c5)c4)(CC2)CC3)no1 [Example 530, N-(3-(2-cyclopropylthiazolo[4,5-b]pyridin-6-yl)phenyl)-N-((4-(5-(1,1-difluoroethyl)-1,2,4-oxadiazol-3-yl)bicyclo[2.2.2]octan-1-yl)methyl)-3-fluorobicyclo[1.1.1]pentane-1-carboxamide] | 145
6 | CCOc1ccc(-c2cccc(N(CC34CCC(c5ccc(C(F)(F)F)cn5)(CC3)CC4)C(=O)C34CC(F)(C3)C4)c2)cc1 [Example 489, N-(4′-ethoxy-[1,1′-biphenyl]-3-yl)-3-fluoro-N-((4-(5-(trifluoromethyl)pyridin-2-yl)bicyclo[2.2.2]octan-1-yl)methyl)bicyclo[1.1.1]pentane-1-carboxamide] | 1640

Same assay, conditions: Gal4-hFXR fusion construct, HEK293 reporter cells; response relative to 8 μM GW-4064

Row | Structure (SMILES) | EC50 [nM]
7 | O=C(N(CC12CCC(c3nc(C4CC4)no3)(CC1)CC2)c1cccc(-c2cccc(OC(F)(F)C(F)F)c2)c1)C12CC(F)(C1)C2 [Example 299, N-((4-(3-cyclopropyl-1,2,4-oxadiazol-5-yl)bicyclo[2.2.2]octan-1-yl)methyl)-3-fluoro-N-(3′-(1,1,2,2-tetrafluoroethoxy)-[1,1′-biphenyl]-3-yl)bicyclo[1.1.1]pentane-1-carboxamide] | 660
8 | COc1cc(-c2cccc(N(CC34CCC(c5ccnc(C)c5)(CC3)CC4)C(=O)C34CC(F)(C3)C4)c2)ccn1 [Example 238, 3-Fluoro-N-(3-(2-methoxypyridin-4-yl)phenyl)-N-((4-(2-methylpyridin-4-yl)bicyclo[2.2.2]octan-1-yl)methyl)bicyclo[1.1.1]pentane-1-carboxamide] | 517
9 | O=C(N(CC12CCC(c3nc(C4CC4)no3)(CC1)CC2)c1cncc(-c2cnc(C(F)(F)F)nc2)c1)C12CC(F)(C1)C2 [Example 428, N-((4-(3-cyclopropyl-1,2,4-oxadiazol-5-yl)bicyclo[2.2.2]octan-1-yl)methyl)-3-fluoro-N-(5-(2-(trifluoromethyl)pyrimidin-5-yl)pyridin-3-yl)bicyclo[1.1.1]pentane-1-carboxamide] | 3550
10 | CC(C)(C)c1nc(C23CCC(CN(C(=O)C45CC(F)(C4)C5)c4cccc(-c5ccc(NS(C)(=O)=O)cc5)c4)(CC2)CC3)no1 [Example 438, N-((4-(5-(tert-butyl)-1,2,4-oxadiazol-3-yl)bicyclo[2.2.2]octan-1-yl)methyl)-3-fluoro-N-(4′-(methylsulfonamido)-[1,1′-biphenyl]-3-yl)bicyclo[1.1.1]pentane-1-carboxamide] | 46
11 | COc1ccc(-c2cccc(N(CC34CCC(c5ccc(C6(C#N)CC6)cc5)(CC3)OC4)C(=O)C34CC(F)(C3)C4)c2)cc1 [Example 349, N-((1-(4-(1-cyanocyclopropyl)phenyl)-2-oxabicyclo[2.2.2]octan-4-yl)methyl)-3-fluoro-N-(4′-methoxy-[1,1′-biphenyl]-3-yl)bicyclo[1.1.1]pentane-1-carboxamide] | 130
12 | Cc1nc2ccc(-c3cccc(N(CC45CCC(c6noc(C(C)(C)C)n6)(CC4)CC5)C(=O)C45CC(F)(C4)C5)c3)cc2s1 [Example 441, N-((4-(5-(tert-butyl)-1,2,4-oxadiazol-3-yl)bicyclo[2.2.2]octan-1-yl)methyl)-3-fluoro-N-(3-(2-methylbenzo[d]thiazol-6-yl)phenyl)bicyclo[1.1.1]pentane-1-carboxamide] | 68
13 | Cc1nc2ccc(-c3cccc(N(CC45CCC(c6ccc(C7(C#N)CC7)cc6)(CC4)OC5)C(=O)C45CC(F)(C4)C5)c3)cc2s1 [Example 346, N-((1-(4-(1-cyanocyclopropyl)phenyl)-2-oxabicyclo[2.2.2]octan-4-yl)methyl)-3-fluoro-N-(3-(2-methylbenzo[d]thiazol-6-yl)phenyl)bicyclo[1.1.1]pentane-1-carboxamide] | 181
14 | O=C(N(CC12CCC(c3nc(C4CC4)no3)(CC1)CC2)c1cccc(-c2ccc3c(c2)OC(F)(F)O3)c1)C12CC(F)(C1)C2 [Example 284, N-((4-(3-cyclopropyl-1,2,4-oxadiazol-5-yl)bicyclo[2.2.2]octan-1-yl)methyl)-N-(3-(2,2-difluorobenzo[d][1,3]dioxol-5-yl)phenyl)-3-fluorobicyclo[1.1.1]pentane-1-carboxamide] | 233
15 | CCOc1ncc(-c2cccc(N(CC34CCC(c5nc(C(C)(C)C)no5)(CC3)CO4)C(=O)C34CC(F)(C3)C4)c2)cn1 [Example 553, N-((4-(3-(tert-butyl)-1,2,4-oxadiazol-5-yl)-2-oxabicyclo[2.2.2]octan-1-yl)methyl)-N-(3-(2-ethoxypyrimidin-5-yl)phenyl)-3-fluorobicyclo[1.1.1]pentane-1-carboxamide] | 1590
16 | CC(C)(F)c1nc(C23CCC(CN(C(=O)O[C@H]4C[C@](O)(C(F)(F)F)C4)c4cc(-c5ccc(OC(F)F)cc5)c(F)cn4)(CC2)CC3)no1 [Example 629, (cis)-3-hydroxy-3-(trifluoromethyl)cyclobutyl (4-(4-(difluoromethoxy)phenyl)-5-fluoropyridin-2-yl)((4-(5-(2-fluoropropan-2-yl)-1,2,4-oxadiazol-3-yl)bicyclo[2.2.2]octan-1-yl)methyl)carbamate] | 99
17 | Cc1nc2ccc(-c3cccc(N(CC45CCC(c6ccc(C(=O)N(C)C)cc6)(CC4)OC5)C(=O)C45CC(F)(C4)C5)c3)cc2s1 [Example 569, N-((1-(4-(dimethylcarbamoyl)phenyl)-2-oxabicyclo[2.2.2]octan-4-yl)methyl)-3-fluoro-N-(3-(2-methylbenzo[d]thiazol-6-yl)phenyl)bicyclo[1.1.1]pentane-1-carboxamide] | 2220
18 | N#Cc1cnc2ccc(-c3cccc(N(CC45CCC(c6nc(C7CC7)no6)(CC4)CC5)C(=O)C45CC(F)(C4)C5)c3)nn12 [Example 306, N-(3-(3-cyanoimidazo[1,2-b]pyridazin-6-yl)phenyl)-N-((4-(3-cyclopropyl-1,2,4-oxadiazol-5-yl)bicyclo[2.2.2]octan-1-yl)methyl)-3-fluorobicyclo[1.1.1]pentane-1-carboxamide] | 386
19 | O=C(N(CC12CCC(c3nc(C4CC4)no3)(CC1)CC2)c1cccc(-c2cc(C(F)(F)F)c3ncnn3c2)c1)C12CC(F)(C1)C2 [Example 263, N-((4-(3-cyclopropyl-1,2,4-oxadiazol-5-yl)bicyclo[2.2.2]octan-1-yl)methyl)-3-fluoro-N-(3-(8-(trifluoromethyl)-[1,2,4]triazolo[1,5-a]pyridin-6-yl)phenyl)bicyclo[1.1.1]pentane-1-carboxamide] | 2710
20 | CC(C)Oc1ccc(-c2cccc(N(CC34CCC(c5noc(C(C)(F)F)n5)(CC3)CC4)C(=O)NC3CCOCC3)c2)cc1 [Example 652, 1-((4-(5-(1,1-difluoroethyl)-1,2,4-oxadiazol-3-yl)bicyclo[2.2.2]octan-1-yl)methyl)-1-(4′-isopropoxy-[1,1′-biphenyl]-3-yl)-3-(tetrahydro-2H-pyran-4-yl)urea] | 379
21 | CC(C)(O)c1ccc(-c2cccc(N(CC34CCC(c5noc(C(C)(C)F)n5)(CC3)CC4)C(=O)[C@H]3C[C@](O)(C(F)(F)F)C3)c2)nn1 [Example 593, (cis)-N-((4-(5-(2-fluoropropan-2-yl)-1,2,4-oxadiazol-3-yl)bicyclo[2.2.2]octan-1-yl)methyl)-3-hydroxy-N-(3-(6-(2-hydroxypropan-2-yl)pyridazin-3-yl)phenyl)-3-(trifluoromethyl)cyclobutane-1-carboxamide] | 566
22 | COc1cc(-c2cccc(N(CC34CCC(c5cccc(C)n5)(CC3)CC4)C(=O)C34CC(F)(C3)C4)c2)ccn1 [Example 239, 3-Fluoro-N-(3-(2-methoxypyridin-4-yl)phenyl)-N-((4-(6-methylpyridin-2-yl)bicyclo[2.2.2]octan-1-yl)methyl)bicyclo[1.1.1]pentane-1-carboxamide] | 1320
23 | CC(C)(O)c1ccc(-c2ccnc(N(CC34CCC(c5ccc(C(C)(F)F)cn5)(CC3)CC4)C(=O)OC(C)(C)C(F)(F)F)c2)cc1 [Example 605, 1,1,1-trifluoro-2-methylpropan-2-yl((4-(5-(1,1-difluoroethyl)pyridin-2-1)bicyclo[2.2.2]octan-1-yl)methyl)(4-(4-(2-hydroxypropan-2-yl)phenyl)pyridin-2-yl)carbamate] | 52
